# Legend:
# Assay in all cases: relative viability (nuclei count vs DMSO), 5 days (fraction); higher = more cells survive
# HCC-366 = test system: HCC-366
# Procedure, shortened: (§1)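 Lung cancer cell lines were pin-tool dosed in 1536-well plates on the day after seeding, with either a lone drug or a fixed anchor-drug dose plus five library-drug doses (not always all listed) in √10 steps. Nuclei were counted on 4× images after 5 days. Relative viability is the ratio of treated-well to vehicle-well nuclei counts, with each value a median of duplicate plates.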
# NCI-H460 = test system: NCI-H460
# Procedure, shortened: as §1
# LCLC-103H = test system: LCLC-103H
# Procedure, shortened: as §1
# NCI-H1975 = test system: NCI-H1975
# Procedure, shortened: as §1
# NCI-H727 = test system: NCI-H727
# Procedure, shortened: as §1
# NCI-H1355 = test system: NCI-H1355
# Procedure, shortened: as §1
# HCC-827 = test system: HCC-827
# Procedure, shortened: as §1
# A-427 = test system: A-427
# Procedure, shortened: as §1
# NCI-H1437 = test system: NCI-H1437
# Procedure, shortened: as §1
# EMC-BAC-2 = test system: EMC-BAC-2
# Procedure, shortened: as §1
# HOP-62 = test system: HOP-62
# Procedure, shortened: as §1
# NCI-H1915 = test system: NCI-H1915
# Procedure, shortened: as §1
# NCI-H2009 = test system: NCI-H2009
# Procedure, shortened: as §1
# SW 1573 = test system: SW 1573
# Procedure, shortened: as §1
# COR-L 105 = test system: COR-L 105
# Procedure, shortened: as §1
# NCI-H1395 = test system: NCI-H1395
# Procedure, shortened: as §1
# NCI-H23 = test system: NCI-H23
# Procedure, shortened: as §1
# HARA = test system: HARA
# Procedure, shortened: as §1
# NCI-H2228 = test system: NCI-H2228
# Procedure, shortened: as §1
# SK-LU-1 = test system: SK-LU-1
# Procedure, shortened: as §1
# CAL-12T = test system: CAL-12T
# Procedure, shortened: as §1
# NCI-H1755 = test system: NCI-H1755
# Procedure, shortened: as §1
smiles,measurement,setting,value
COc1cc(N2CCC(C(N)=O)CC2)ccc1Nc1nc(N)c(Cl)c(Nc2ccccc2S(=O)(=O)C(C)C)n1 [HG-5-88-01] + COc1cc2c(Oc3ccc(NC(=O)C4(C(=O)Nc5ccc(F)cc5)CC4)cc3F)ccnc2cc1OCCCN1CCOCC1 [Foretinib] (partner 0.25 µM),relative viability,HCC-366; first compound 0.04 µM,0.955
same,relative viability,HCC-366; first compound 0.1265 µM,0.915
same,relative viability,HCC-366; first compound 0.4 µM,0.909
same,relative viability,HCC-366; first compound 1.265 µM,0.856
same,relative viability,HCC-366; first compound 4 µM,0.45
same,relative viability,NCI-H460; first compound 0.04 µM,1.03
same,relative viability,NCI-H460; first compound 0.1265 µM,1.01
same,relative viability,NCI-H460; first compound 0.4 µM,0.929
same,relative viability,NCI-H460; first compound 1.265 µM,0.959
same,relative viability,NCI-H460; first compound 4 µM,0.926
same,relative viability,LCLC-103H; first compound 0.04 µM,0.767
same,relative viability,LCLC-103H; first compound 0.1265 µM,0.745
same,relative viability,LCLC-103H; first compound 0.4 µM,0.745
same,relative viability,LCLC-103H; first compound 1.265 µM,0.757
same,relative viability,LCLC-103H; first compound 4 µM,0.75
same,relative viability,NCI-H1975; first compound 0.04 µM,1.08
same,relative viability,NCI-H1975; first compound 0.1265 µM,0.923
same,relative viability,NCI-H1975; first compound 0.4 µM,0.814
same,relative viability,NCI-H1975; first compound 1.265 µM,0.916
same,relative viability,NCI-H1975; first compound 4 µM,0.397
same,relative viability,NCI-H727; first compound 0.04 µM,1.07
same,relative viability,NCI-H727; first compound 0.1265 µM,0.843
same,relative viability,NCI-H727; first compound 0.4 µM,0.811
same,relative viability,NCI-H727; first compound 1.265 µM,0.55
same,relative viability,NCI-H727; first compound 4 µM,0.581
same,relative viability,NCI-H1355; first compound 0.04 µM,1.01
same,relative viability,NCI-H1355; first compound 0.1265 µM,1.05
same,relative viability,NCI-H1355; first compound 0.4 µM,0.929
same,relative viability,NCI-H1355; first compound 1.265 µM,0.96
same,relative viability,NCI-H1355; first compound 4 µM,0.696
same,relative viability,HCC-827; first compound 0.04 µM,1.06
same,relative viability,HCC-827; first compound 0.1265 µM,1.12
same,relative viability,HCC-827; first compound 0.4 µM,1.05
same,relative viability,HCC-827; first compound 1.265 µM,0.965
same,relative viability,HCC-827; first compound 4 µM,0.579
same,relative viability,A-427; first compound 0.04 µM,1.13
same,relative viability,A-427; first compound 0.1265 µM,1.13
same,relative viability,A-427; first compound 0.4 µM,0.953
same,relative viability,A-427; first compound 1.265 µM,1.08
same,relative viability,A-427; first compound 4 µM,1.08
same,relative viability,NCI-H1437; first compound 0.04 µM,1.27
same,relative viability,NCI-H1437; first compound 0.1265 µM,1.28
same,relative viability,NCI-H1437; first compound 0.4 µM,0.912
same,relative viability,NCI-H1437; first compound 1.265 µM,1.2
same,relative viability,NCI-H1437; first compound 4 µM,1.37
same,relative viability,EMC-BAC-2; first compound 0.04 µM,1.06
same,relative viability,EMC-BAC-2; first compound 0.1265 µM,1.09
same,relative viability,EMC-BAC-2; first compound 0.4 µM,0.973
same,relative viability,EMC-BAC-2; first compound 1.265 µM,0.787
same,relative viability,EMC-BAC-2; first compound 4 µM,0.795
same,relative viability,HOP-62; first compound 0.04 µM,1.15
same,relative viability,HOP-62; first compound 0.1265 µM,1.12
same,relative viability,HOP-62; first compound 0.4 µM,1.01
same,relative viability,HOP-62; first compound 1.265 µM,1.13
same,relative viability,HOP-62; first compound 4 µM,1.3
same,relative viability,NCI-H1915; first compound 0.04 µM,1.22
same,relative viability,NCI-H1915; first compound 0.1265 µM,1.22
same,relative viability,NCI-H1915; first compound 0.4 µM,1.04
same,relative viability,NCI-H1915; first compound 1.265 µM,1.2
same,relative viability,NCI-H1915; first compound 4 µM,1.04
same,relative viability,NCI-H2009; first compound 0.04 µM,1.18
same,relative viability,NCI-H2009; first compound 0.1265 µM,1.25
same,relative viability,NCI-H2009; first compound 0.4 µM,1.14
same,relative viability,NCI-H2009; first compound 1.265 µM,1.14
same,relative viability,NCI-H2009; first compound 4 µM,1.24
same,relative viability,SW 1573; first compound 0.04 µM,0.868
same,relative viability,SW 1573; first compound 0.1265 µM,0.816
same,relative viability,SW 1573; first compound 0.4 µM,0.942
same,relative viability,SW 1573; first compound 1.265 µM,0.736
same,relative viability,SW 1573; first compound 4 µM,0.624
same,relative viability,COR-L 105; first compound 0.04 µM,1.05
same,relative viability,COR-L 105; first compound 0.1265 µM,1.11
same,relative viability,COR-L 105; first compound 0.4 µM,1.16
same,relative viability,COR-L 105; first compound 1.265 µM,0.969
same,relative viability,COR-L 105; first compound 4 µM,0.629
same,relative viability,NCI-H1395; first compound 0.04 µM,0.988
same,relative viability,NCI-H1395; first compound 0.1265 µM,1.06
same,relative viability,NCI-H1395; first compound 0.4 µM,1.04
same,relative viability,NCI-H1395; first compound 1.265 µM,0.859
same,relative viability,NCI-H1395; first compound 4 µM,0.999
same,relative viability,NCI-H23; first compound 0.04 µM,1.08
same,relative viability,NCI-H23; first compound 0.1265 µM,1.06
same,relative viability,NCI-H23; first compound 0.4 µM,0.972
same,relative viability,NCI-H23; first compound 1.265 µM,0.729
same,relative viability,NCI-H23; first compound 4 µM,0.515
same,relative viability,HARA; first compound 0.04 µM,0.917
same,relative viability,HARA; first compound 0.1265 µM,0.878
same,relative viability,HARA; first compound 0.4 µM,0.875
same,relative viability,HARA; first compound 1.265 µM,0.733
same,relative viability,HARA; first compound 4 µM,0.694
same,relative viability,NCI-H2228; first compound 0.04 µM,0.593
same,relative viability,NCI-H2228; first compound 0.1265 µM,0.327
same,relative viability,NCI-H2228; first compound 0.4 µM,0.353
same,relative viability,NCI-H2228; first compound 1.265 µM,0.219
same,relative viability,NCI-H2228; first compound 4 µM,0.27
same,relative viability,SK-LU-1; first compound 0.04 µM,0.839
same,relative viability,SK-LU-1; first compound 0.1265 µM,0.834
same,relative viability,SK-LU-1; first compound 0.4 µM,0.751
same,relative viability,SK-LU-1; first compound 1.265 µM,0.738
same,relative viability,SK-LU-1; first compound 4 µM,0.618
same,relative viability,CAL-12T; first compound 0.04 µM,1.06
same,relative viability,CAL-12T; first compound 0.1265 µM,1.19
same,relative viability,CAL-12T; first compound 0.4 µM,1.05
same,relative viability,CAL-12T; first compound 1.265 µM,0.963
same,relative viability,CAL-12T; first compound 4 µM,0.945
same,relative viability,NCI-H1755; first compound 0.04 µM,0.876
same,relative viability,NCI-H1755; first compound 0.1265 µM,0.895
same,relative viability,NCI-H1755; first compound 0.4 µM,0.863
same,relative viability,NCI-H1755; first compound 1.265 µM,0.858
same,relative viability,NCI-H1755; first compound 4 µM,0.873
